{"source": "ChEMBL document CHEMBL1201862", "about": "“PubChem BioAssay data set” (2004)", "key": {"[1]": {"assay": "M. tuberculosis growth inhibition, HTS (AID 449762)", "assay_type": "functional"}, "[2]": {"assay": "A High Throughput Confirmatory Assay used to Identify Novel Compounds that Inhibit Mycobacterium Tuberculosis in the absence of Glycerol.", "assay_type": "functional"}, "[3]": {"biological_target": "Luciferin 4-monooxygenase (Photinus pyralis, UniProt P08659)", "sequence (P08659 whole entry)": "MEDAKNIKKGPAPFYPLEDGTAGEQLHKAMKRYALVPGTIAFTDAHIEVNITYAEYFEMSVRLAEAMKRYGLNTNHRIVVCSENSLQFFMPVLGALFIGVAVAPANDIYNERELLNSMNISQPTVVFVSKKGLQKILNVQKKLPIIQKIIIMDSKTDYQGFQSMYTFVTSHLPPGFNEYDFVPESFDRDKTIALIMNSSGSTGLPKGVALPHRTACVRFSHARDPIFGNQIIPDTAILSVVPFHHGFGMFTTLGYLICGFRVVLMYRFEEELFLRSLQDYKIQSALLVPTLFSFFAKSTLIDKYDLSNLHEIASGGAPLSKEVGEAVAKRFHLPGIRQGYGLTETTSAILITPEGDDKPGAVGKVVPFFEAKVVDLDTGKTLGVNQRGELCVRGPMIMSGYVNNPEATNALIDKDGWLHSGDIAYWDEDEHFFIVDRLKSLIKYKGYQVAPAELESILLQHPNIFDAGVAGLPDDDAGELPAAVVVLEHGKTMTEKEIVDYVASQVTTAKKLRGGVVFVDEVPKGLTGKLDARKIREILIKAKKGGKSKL", "assay": "Counter Screen for Luciferase-based Assay Positives. [Related pubchem assays: 620, 618, 411 ]"}, "[4]": {"tested_on": "HT-1080", "assay": "cytotoxicity in HT1080 fibrosarcoma cells, cell-based, fluorescence readout (AID 620)", "assay_type": "functional", "conditions": "Homo sapiens"}, "[5]": {"biological_target": "Epstein-Barr nuclear antigen 1 (Epstein-Barr virus (strain B95-8) (HHV-4) (Human herpesvirus 4), UniProt P03211)", "sequence (P03211 whole entry)": "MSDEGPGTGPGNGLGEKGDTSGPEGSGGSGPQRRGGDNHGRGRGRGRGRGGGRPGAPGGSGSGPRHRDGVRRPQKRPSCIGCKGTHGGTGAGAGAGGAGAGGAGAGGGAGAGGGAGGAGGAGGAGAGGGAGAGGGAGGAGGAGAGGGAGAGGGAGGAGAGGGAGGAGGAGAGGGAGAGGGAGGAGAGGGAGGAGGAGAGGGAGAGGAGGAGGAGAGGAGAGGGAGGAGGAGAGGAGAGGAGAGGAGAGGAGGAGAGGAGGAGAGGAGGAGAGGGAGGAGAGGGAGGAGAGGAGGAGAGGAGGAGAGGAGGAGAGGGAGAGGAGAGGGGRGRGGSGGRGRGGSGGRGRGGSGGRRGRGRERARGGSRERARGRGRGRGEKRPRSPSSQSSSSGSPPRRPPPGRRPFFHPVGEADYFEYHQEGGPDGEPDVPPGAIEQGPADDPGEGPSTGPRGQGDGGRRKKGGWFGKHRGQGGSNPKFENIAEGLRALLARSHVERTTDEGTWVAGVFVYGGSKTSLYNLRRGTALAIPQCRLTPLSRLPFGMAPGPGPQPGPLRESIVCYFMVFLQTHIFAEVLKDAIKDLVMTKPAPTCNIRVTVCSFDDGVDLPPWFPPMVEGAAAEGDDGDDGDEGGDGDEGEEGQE", "assay": "EBNA-1 inhibitors, dose response, biochemical, fluorescence polarization, 1536-well (AID 2381);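 note: fluorescence polarization of a Cy5 DNA probe bound by EBNA-1 protein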", "set-up": "species or system human gammaherpesvirus 4"}, "[6]": {"biological_target": "Lytic switch protein BZLF1 (Epstein-Barr virus (strain B95-8) (HHV-4) (Human herpesvirus 4), UniProt P03206)", "sequence (P03206 whole entry)": "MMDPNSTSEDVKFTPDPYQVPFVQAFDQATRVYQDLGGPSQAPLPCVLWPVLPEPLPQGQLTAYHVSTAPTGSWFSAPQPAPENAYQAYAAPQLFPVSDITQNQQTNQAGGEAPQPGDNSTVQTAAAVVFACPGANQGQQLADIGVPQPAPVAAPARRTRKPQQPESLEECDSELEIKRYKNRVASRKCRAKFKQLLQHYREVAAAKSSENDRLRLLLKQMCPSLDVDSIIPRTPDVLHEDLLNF", "assay": "EBV ZTA inhibitors, dose response, counter-screen for EBNA-1 inhibitor project, biochemical, fluorescence polarization, Epstein-Barr virus, 1536-well (AID 2377);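 note: fluorescence polarization of Cy5-labelled ZRE DNA probe bound by purified Zta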", "set-up": "species or system human gammaherpesvirus 4"}, "[7]": {"biological_target": "T1, E3 ubiquitin-protein ligase XIAP (Homo sapiens, UniProt P98170)", "T1 sequence (P98170 whole entry)": "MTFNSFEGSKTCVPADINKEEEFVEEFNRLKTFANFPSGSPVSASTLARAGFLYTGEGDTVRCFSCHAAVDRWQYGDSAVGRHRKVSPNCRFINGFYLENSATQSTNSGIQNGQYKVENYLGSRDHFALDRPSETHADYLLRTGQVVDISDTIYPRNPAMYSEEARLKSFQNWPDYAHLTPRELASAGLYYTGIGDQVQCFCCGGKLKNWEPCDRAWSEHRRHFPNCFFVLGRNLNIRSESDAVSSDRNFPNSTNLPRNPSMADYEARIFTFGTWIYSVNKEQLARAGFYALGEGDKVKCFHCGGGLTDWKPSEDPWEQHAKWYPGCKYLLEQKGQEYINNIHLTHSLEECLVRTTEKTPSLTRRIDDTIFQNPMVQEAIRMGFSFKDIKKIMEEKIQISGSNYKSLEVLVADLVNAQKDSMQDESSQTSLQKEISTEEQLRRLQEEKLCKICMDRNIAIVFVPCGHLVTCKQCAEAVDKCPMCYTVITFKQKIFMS", "assay": "Counter Screen using XIAP-Bir3 for Chemical Antagonists of Bir1/2 domains of IAP-family anti-apoptotic proteins. [Related pubchem assays (depositor defined):AID1018, AID1449, AID1514, AID1638, AID1749, AID1750, AID488957, AID488963]"}, "[8]": {"biological_target": "T1, E3 ubiquitin-protein ligase XIAP", "assay": "XIAP antagonists, biochemical, IAP family, fluorescence polarization (AID 1018)", "assay_type": "functional"}, "[9]": {"tested_on": "Vero", "assay": "cells", "assay_type": "functional, cell-based", "conditions": "Chlorocebus sabaeus"}, "[10]": {"assay": "A Cell-Based Counter Screen testing Compounds that Inhibit VEEV TC-83, in strain KU V3526.", "assay_type": "functional"}, "[11]": {"tested_on": "Vero", "assay": "cells", "assay_type": "functional", "conditions": "Chlorocebus sabaeus"}, "[12]": {"assay": "HEp-2 cell cytotoxicity, dose response, cytotoxicity control for RSV inhibitor project, HTS (AID 2410)", "assay_type": "functional", "conditions": "human respiratory syncytial virus"}, "[13]": {"assay": "Vero 76 cell cytotoxicity, dose response, cytotoxicity control, set 2 (AID 602240)", "assay_type": "functional", "conditions": "Venezuelan equine encephalitis virus"}, "[14]": {"assay": "cells"}, "[15]": {"assay": "A Cell-Based Confirmatory Screen for Compounds that Inhibit VEEV, TC-83 (2).", "assay_type": "functional"}, "[16]": {"biological_target": "ATP-sensitive inward rectifier potassium channel 1 (Homo sapiens, UniProt P48048)", "sequence (P48048 whole entry)": "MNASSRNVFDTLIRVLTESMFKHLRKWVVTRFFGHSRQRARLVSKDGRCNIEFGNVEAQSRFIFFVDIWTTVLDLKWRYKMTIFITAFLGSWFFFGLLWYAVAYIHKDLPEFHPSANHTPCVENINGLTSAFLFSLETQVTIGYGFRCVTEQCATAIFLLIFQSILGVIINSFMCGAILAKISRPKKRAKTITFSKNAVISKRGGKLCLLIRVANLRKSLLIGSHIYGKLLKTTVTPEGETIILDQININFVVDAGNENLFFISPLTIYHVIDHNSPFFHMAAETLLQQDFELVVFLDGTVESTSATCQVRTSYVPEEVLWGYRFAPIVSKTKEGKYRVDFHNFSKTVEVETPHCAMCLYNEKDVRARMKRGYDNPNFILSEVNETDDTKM", "assay": "ROMK inhibition by analog compounds, SAR follow-up, cell-based, thallium flux, analog library (AID 435017)", "assay_type": "functional"}}, "note": "Calls of active or inactive are those of the source.", "data": [{"compound": "O=c1c2ccccc2nc(/C=C/c2ccccc2)n1-c1ccc(O)cc1", "values": [{"measurement": "IC50", "setting": "[1]", "result": "> 100 µM (active)"}, {"measurement": "IC50", "setting": "[2]", "result": "> 50 µM (active)"}]}, {"compound": "Nc1ccc2oc(-c3ccc4[nH]cnc4c3)nc2c1", "values": [{"measurement": "EC50", "setting": "[3]", "result": "11.2 µM (active)"}, {"measurement": "EC50", "setting": "[4]", "result": "> 50 µM (not active)"}]}, {"compound": "O=C(Nc1ccc(Oc2ccc3c(c2)C(=O)N(c2ccc(O)cc2)C3=O)cc1)c1cccs1", "values": [{"measurement": "IC50", "setting": "[5]", "result": "15.1 µM (not active)"}, {"measurement": "IC50", "setting": "[6]", "result": "> 111 µM (not active)"}]}, {"compound": "O=c1c2ccccc2nnn1CSc1nnc(-c2cccs2)n1Cc1ccccc1", "values": [{"measurement": "IC50", "setting": "[7]", "result": "> 100 µM (inactive)"}, {"measurement": "IC50", "setting": "[8]", "result": "> 100 µM (not active)"}]}, {"compound": "O=C(Cc1cccs1)Nc1nc2c(s1)CCCC2", "values": [{"measurement": "IC50", "setting": "[9]", "result": "6.38 µM (active)"}, {"measurement": "IC50", "setting": "[10]", "result": "4.71 µM (active)"}, {"measurement": "CC50", "setting": "[11]", "result": "> 25 µM (active)"}, {"measurement": "CC50", "setting": "[12]", "result": "17.2 µM (active)"}, {"measurement": "CC50", "setting": "[13]", "result": "> 50 µM (active)"}, {"measurement": "IC50", "setting": "[14]", "result": "10 µM (active)"}, {"measurement": "IC50", "setting": "[15]", "result": "7.09 µM (active)"}]}, {"compound": "COc1ccc([N+](=O)[O-])cc1CN1CCOCCOCCN(Cc2ccc([N+](=O)[O-])cc2OC)CCOCC1", "values": [{"measurement": "IC50", "setting": "[16]", "result": "1.5 µM (active)"}]}]}
